Active and inactive are the calls of the source. The rule behind the calls is not given here.
How the values were obtained:
NCI-H522 = test: Antiproliferative activity against human NCI-H522 cells assessed as inhibition of cell growth at 10 uM; format: functional; set-up: scale not given: the % may be the effect or the level left
HUVEC [1] = test: Anti-angiogenic activity against HUVEC cells assessed as effect on SRC phosphorylation at 20 uM preincubated for 10 mins followed by VEGF addition and measured after 20 mins by western blot analysis; format: functional, cell-based; details: Homo sapiens, time 30.0 min
CCRF-CEM = test: Antiproliferative activity against human CCRF-CEM cells assessed as inhibition of cell growth at 10 uM; format: functional; set-up: scale not given: the % may be the effect or the level left
HUVEC [2] = test: Anti-angiogenic activity against HUVEC cells assessed as decrease in ERK phosphorylation level at 20 uM preincubated for 10 mins followed by VEGF addition and measured after 20 mins by western blot analysis; format: functional, cell-based; details: Homo sapiens, time 30.0 min
[3] = (§1) Antiproliferative activity against HUVEC assessed as inhibition of cell growth at 20 uM measured after 24 hrs by EdU incorporation based fluorescence microscopic analysis; format: toxicity; details: human, HUVEC cells, read-out: Activity
[4] = (§2) Antiproliferative activity against HUVEC assessed as inhibition of cell growth at 10 uM measured after 24 hrs by EdU incorporation based fluorescence microscopic analysis; format: toxicity; details: human, HUVEC cells, read-out: Activity
HUVEC [5] = test: Effect on PP1gamma expression level in HUVEC cells at 1 uM by western blot analysis; format: functional, cell-based; details: Homo sapiens
HUVEC [6] = test: Anti-angiogenic activity against HUVEC cells assessed as decrease in ERK phosphorylation level at 20 uM preincubated for 10 mins followed by VEGF addition and measured after 20 mins in presence of Na3VO4 by western blot analysis; format: functional, cell-based; details: Homo sapiens, time 30.0 min
HUVEC [7] = test: Effect on MAPK1 expression level in HUVEC cells at 100 uM by western blot analysis; format: functional, cell-based; details: Homo sapiens
K562 = test: Antiproliferative activity against human K-562 cells assessed as inhibition of cell growth at 10 uM; format: functional; set-up: scale not given: the % may be the effect or the level left
RPMI-8226 = test: Antiproliferative activity against human RPMI-8226 cells assessed as inhibition of cell growth at 10 uM; format: functional; set-up: scale not given: the % may be the effect or the level left
HUVEC [8] = test: Antiproliferative activity against HUVEC assessed as inhibition of cell growth at 100 uM measured after 24 hrs by EdU incorporation based fluorescence microscopic analysis; format: toxicity; details: human
M14 = test: Antiproliferative activity against human M14 cells assessed as inhibition of cell growth at 10 uM; format: functional; set-up: scale not given: the % may be the effect or the level left
HUVEC [9] = test: as §1; format: toxicity; details: human, huvec, 24 h, 20 µM
HUVEC [10] = test: as §2; format: toxicity; details: human, huvec, 24 h, 10 µM
SK-MEL-5 = test: Antiproliferative activity against human SK-MEL-5 cells assessed as inhibition of cell growth at 10 uM; format: functional; set-up: scale not given: the % may be the effect or the level left
HL-60(TB) = test: Antiproliferative activity against human HL-60(TB) cells assessed as inhibition of cell growth at 10 uM; format: functional; set-up: scale not given: the % may be the effect or the level left
SK-MEL-2 = test: Antiproliferative activity against human SK-MEL-2 cells assessed as inhibition of cell growth at 10 uM; format: functional; set-up: scale not given: the % may be the effect or the level left
HCT-116 = test: Antiproliferative activity against human HCT-116 cells assessed as inhibition of cell growth at 10 uM; format: functional; set-up: scale not given: the % may be the effect or the level left

## CCCC(O)Cn1ncc(C(=O)OCC)c1NC(=O)NCc1ccc(F)cc1 (configuration not stated)
NCI-H522
  Activity: 53%

## CCCC(O)Cn1ncc(C(=O)OCC)c1NC(=O)NCc1cccc(C(F)(F)F)c1 (configuration not stated)
HUVEC [1]
  Activity: inactive
CCRF-CEM
  Activity: 100%
HUVEC [2]
  Activity: Active
[3]
  inhibition at 24 h, 20 µM: 30%
[4]
  inhibition at 24 h, 10 µM: 20%
HUVEC [5]
  Activity: Active
HUVEC [6]
  Activity: inactive
NCI-H522
  Activity: 54%
HUVEC [7]
  Activity: Active
K562
  Activity: 53%
RPMI-8226
  Activity: 53%
HUVEC [8]
  Activity: Toxic
M14
  Activity: 42%

## CCCC(O)Cn1ncc(C(=O)OCC)c1NC(=O)Nc1cccc(C(F)(F)F)c1 (configuration not stated)
HUVEC [1]
  Activity: inactive
HUVEC [2]
  Activity: inactive
HUVEC [9]
  Activity: Non-Toxic
HUVEC [10]
  Activity: Non-Toxic
HUVEC [6]
  Activity: inactive
HUVEC [8]
  Activity: Toxic

## CCCC(O)Cn1ncc(C(=O)OCC)c1NC(=O)NCc1ccc(C(F)(F)F)cc1 (configuration not stated)
SK-MEL-5
  Activity: 59%
CCRF-CEM
  Activity: 60%
HL-60(TB)
  Activity: 60%
NCI-H522
  Activity: 50%
K562
  Activity: 65%
SK-MEL-2
  Activity: 49%
HCT-116
  Activity: 59%
RPMI-8226
  Activity: 74%

## CCCC(O)Cn1ncc(C(=O)OCC)c1NC(=O)NCc1ccccc1C(F)(F)F (configuration not stated)
NCI-H522
  Activity: 59%

## CCCC(O)Cn1ncc(C(=O)OCC)c1NC(=O)NCc1ccccc1F (configuration not stated)
NCI-H522
  Activity: 44%

## CCOC(=O)c1cnn(CC(C)O)c1NC(=O)NCc1cccc(F)c1 (configuration not stated)
CCRF-CEM
  Activity: 100%

## CCOC(=O)c1cnn(CC(O)CC)c1NC(=O)NCc1ccc(C(F)(F)F)cc1 (configuration not stated)
NCI-H522
  Activity: 40%

## CCOC(=O)c1cnn(CC(C)O)c1NC(=O)NCc1ccccc1C(F)(F)F (configuration not stated)
HL-60(TB)
  Activity: 42%

## CCOC(=O)c1cnn(CC(C)O)c1NC(=O)NCc1ccccc1F (configuration not stated)
HL-60(TB)
  Activity: 44%

## CCOC(=O)c1cnn(CC(O)CC)c1NC(=O)NCc1cccc(F)c1 (configuration not stated)
NCI-H522
  Activity: 40%

## CCCC(O)Cn1ncc(C(=O)OCC)c1NC(=O)NCc1cccc(F)c1 (configuration not stated)
HUVEC [2]
  Activity: inactive
HL-60(TB)
  Activity: 41%
HUVEC [9]
  Activity: Non-Toxic
HUVEC [10]
  Activity: Non-Toxic
NCI-H522
  Activity: 42%
HUVEC [8]
  Activity: Toxic

## CCOC(=O)c1cnn(CC(C)O)c1NC(=O)NCc1ccc(F)cc1 (configuration not stated)
HL-60(TB)
  Activity: 53%

Reference: ChEMBL document CHEMBL5038613, “Synthesis, functional proteomics and biological evaluation of new 5-pyrazolyl ureas as potential anti-angiogenic compounds” (Eur J Med Chem, 2021)
